Here are results for six compounds from patent US5610139A, “Antimicrobial compositions and pharmaceutical preparations thereof” (Seikagaku Corporation, priority 1992, dated 1997).

The structures appear in SMILES notation. ≈ marks a conversion by molar mass, not a printed value. Like-named read-outs stand apart in the source and are kept apart here. Where a SMILES comes first, the peptide text is derived from it. Bridges are numbered along the chain shown (N, C = ends).

One assay has as its system MRSA No. 3-50 strain. It counts as cell-based, Staphylococcus aureus. Particulars: for growth: MRSA No. 3-50; for MIC, single administration of the peptide: MRSA. From the text: Synergistic antimicrobial activities by the combinations of tachyplesin I and β-lactam antibiotics or chloramphenicol antibiotics against above mentioned clinically isolated MRSAs were examined and the results against MRSA No. 3-50 strain are shown in the following Tables. For growth: key: + shows growth; - shows no growth.

Assay [1] relates to 55 strains of clinically isolated MRSA. It counts as cell-based, Staphylococcus aureus. From the text:
The MRSAs used for the experiments shown below were isolated as follows. Specimens of urine, sputa and pus of hospitalized patients in Nagoya University, School of Medicine Hospital were smeared and cultured on blood agar medium. Staphylococcus aureus was isolated and identified from the grown colonies. Their sensitivity were examined using BBL test disks containing one μg of oxacillin (BBL Microbiology System Co., Ltd.) and strains showing inhibitory zone of 10 mm or less were classified as MRSA. A total of 55 strains of MRSA Nos. 170, 199, 3-50, 3-53 and so forth were isolated. Their sensitivity were confirmed by an agar plate dilution method using Mueller-Hinton agar medium of BBL (BBL Microbiology System Co., Ltd.) containing 100, 50, 25, 12.5, 6.3, 3.2, 1.6 or 0.8 μg/ml of methicillin (Banyu Pharmaceutical Co., Ltd.).
MRSAs obtained by the preceding method were cultured in L medium (1% bactotrypton, 0.5% yeast extract, 0.5% NaCl, pH 7.2) overnight and diluted 40-fold with a phosphate buffered saline solution (PBS).
Separately, tachyplesin I was diluted by 2-fold method using M9 medium (a synthetic medium added with 1% casamino acid) or T broth (0.5% bactotrypton and 0.5% NaCl) to give concentrations of 200-0.4 μg/ml and poured in a 96 well microplate at 100 μl/well each.
The 40-fold diluted bacterial solution was further diluted 10-fold with the M9 medium or T broth and poured 100 μl each to the above wells and the combined solution was mixed to give final concentration of 100-0.2 μg/ml of tachyplesin I. The bacterial concentration was made approximately 10^6 cfu/well (cfu=colony forming unit).
The resultant mixed solutions of bacterial and tachyplesin I solutions were cultured overnight (18 hrs.) at 37° C. The growth of bacteria was determined by the turbidity of the medium and the minimum concentration required to inhibit their growth was used as the minimum inhibitory concentration (MIC).
MICs of various antimicrobial peptides derived from horseshoe crab against 55 strains of clinically isolated MRSA were determined by a similar method to that shown above.

Assay [2] relates to artificial vesicles using inner membrane of E. coli. Kind of assay: Action on membrane potential in artificial vesicles in vitro. It counts as biochemical. From the text: The antimicrobial mechanisms of the peptides such as tachyplesins against MRSAs are supposed to be similar to those of against Escherichia coil and Salmonella spp. There is an energy producing mechanism by oxidative phosphorylation in cytoplasmic membrane of bacteria, which couples with membrane potential. The action mechanism against E. coli was modeled in artificial vesicles using inner membrane of E. coli and the action of tachyplesin I was investigated in vitro.

Where [3] appears, read: antibiotic 10 μg/ml alone (TAC-I 0 μg/ml).
[4] abbreviates: antibiotic 20 μg/ml alone (TAC-I 0 μg/ml).
The mark [5] stands for this setting: against 55 strains of clinically isolated MRSA.

With `CC1(C)S[C@@H]2[C@H](NC(=O)[C@H](N)c3ccccc3)C(=O)N2[C@H]1C(=O)O` [ABPC, Ampicillin], the growth entry with MRSA No. 3-50 strain (setting [3]) and in the assay with MRSA No. 3-50 strain (setting [4]) was “+” each time.
Broadly, the MIC is the lowest concentration found to suppress growth. Regarding `CC(C)[C@@H]1NC(=O)[C@H](CCCNC(=N)N)NC(=O)[C@H](Cc2ccccc2)NC(=O)[C@@H](NC(=O)[C@H](Cc2c[nH]c3ccccc23)NC(=O)[C@H](CCCNC(=N)N)NC(=O)[C@@H](N)CCCNC(=N)N)CSSC[C@@H](C(=O)N[C@@H](CCCNC(=N)N)C(N)=O)NC(=O)[C@H](CCCCN)NC(=O)[C@H](CCCNC(=N)N)NC(=O)[C@H](Cc2ccc(O)cc2)NC(=O)[C@@H]2CSSC[C@H](NC1=O)C(=O)N[C@@H](Cc1ccc(O)cc1)C(=O)N[C@@H](CCCCN)C(=O)NCC(=O)N[C@@H](Cc1ccccc1)C(=O)N2` [Polyphemusin II] (H-RRWCFRVCYKGFCYRKCR-NH2; disulfide 4-17, 8-13), the “MIC, single administration of the peptide” value in the assay on MRSA No. 3-50 strain was 6.3 µg/mL. In addition, in assay [1] (setting [5]), the minimum inhibitory concentration (MIC) came to 6.3 µg/mL (≈ 2.6 µM).
As for `Cc1nnc(SCC2=C(C(=O)O)N3C(=O)[C@@H](NC(=O)Cn4cnnn4)[C@H]3SC2)s1` [CEZ, Cefazolin], the growth result is recorded as “+” with MRSA No. 3-50 strain (setting [3]), “+” with MRSA No. 3-50 strain (setting [4]) and “-” with MRSA No. 3-50 strain (antibiotic 40 μg/ml alone (TAC-I 0 μg/ml)).
As for `O=C(N[C@H](CO)[C@H](O)c1ccc([N+](=O)[O-])cc1)C(Cl)Cl` [CP, Chloramphenicol], the growth entry with MRSA No. 3-50 strain (antibiotic 5 μg/ml alone (TAC-I 0 μg/ml)), in the assay with MRSA No. 3-50 strain (setting [3]) and in the assay on MRSA No. 3-50 strain (setting [4]) was “+” in each case.
`CC[C@H](C)[C@@H]1NC(=O)CNC(=O)[C@H](CCCNC(=N)N)NC(=O)[C@H](Cc2ccc(O)cc2)NC(=O)[C@@H]2CSSC[C@H](NC1=O)C(=O)N[C@@H](Cc1ccc(O)cc1)C(=O)N[C@@H](CCCNC(=N)N)C(=O)N[C@@H](CCCNC(=N)N)C(=O)N[C@H](C(=O)N[C@@H](CCCNC(=N)N)C(N)=O)CSSC[C@H](NC(=O)[C@H](Cc1c[nH]c3ccccc13)NC(=O)[C@@H](N)CCCCN)C(=O)N[C@@H](Cc1ccccc1)C(=O)N[C@@H](CCCNC(=N)N)C(=O)N[C@@H](C(C)C)C(=O)N2` [Tachyplesin I] (H-KWCFRVCYRGICYRRCR-NH2; disulfide 3-16, 7-12; N-terminus and C-terminus assumed): the “effect on membrane potential generated in the cytoplasmic membrane” value in assay [2] is given as “depolarized the membrane potential”. Also, the growth entry in the assay on MRSA No. 3-50 strain (TAC-I 0.4 μg/ml alone (antibiotic 0 μg/ml)), in the assay on MRSA No. 3-50 strain (TAC-I 0.8 μg/ml alone (antibiotic 0 μg/ml)) and with MRSA No. 3-50 strain (TAC-I 1.6 μg/ml alone (antibiotic 0 μg/ml)) was “+” throughout. In addition, the “MIC, single administration of the peptide” value in the assay with MRSA No. 3-50 strain is 3.2 µg/mL. Also, the minimum inhibitory concentration (MIC) in assay [1] (47 strains (85% of total 55 MRSA strains)) stood at 6.3 µg/mL (≈ 2.78 µM); in assay [1] (one strain (2% of total 55 MRSA strains)), 12.5 µg/mL (≈ 5.52 µM); in assay [1] (seven strains (13% of total 55 MRSA strains)), 3.2 µg/mL (≈ 1.41 µM).
In the case of `CC[C@H](C)[C@@H]1NC(=O)CNC(=O)[C@H](CCCNC(=N)N)NC(=O)[C@H](Cc2ccc(O)cc2)NC(=O)[C@@H]2CSSC[C@H](NC1=O)C(=O)N[C@@H](Cc1ccc(O)cc1)C(=O)N[C@@H](CCCNC(=N)N)C(=O)N[C@@H](CCCCN)C(=O)N[C@H](C(=O)N[C@@H](CCCNC(=N)N)C(N)=O)CSSC[C@H](NC(=O)[C@H](Cc1c[nH]c3ccccc13)NC(=O)[C@@H](N)CCCNC(=N)N)C(=O)N[C@@H](Cc1ccccc1)C(=O)N[C@@H](CCCNC(=N)N)C(=O)N[C@@H](C(C)C)C(=O)N2` [Tachyplesin II] (H-RWCFRVCYRGICYRKCR-NH2; disulfide 3-16, 7-12; N-terminus and C-terminus assumed), in assay [1] (setting [5]), the minimum inhibitory concentration (MIC) came to 3.2 µg/mL (≈ 1.41 µM).
